Data on one compound can be found in publication PMC12030301, “Caffeic Acid Phenethyl Ester (CAPE) Inhibits Arginase Activity and Growth of Leishmania amazonensis Promastigotes and Intracellular Amastigotes” (Pathogens, 2025).

The target in this assay is T1, arginase.
T1 construct: purified recombinant arginase
Nature of the assay: enzyme inhibition kinetics with purified recombinant arginase; Dixon and Cornish-Bowden plots (IC50 […]). It counts as biochemical, Leishmania amazonensis.

As a reminder, the Ki is a measure of affinity in units of concentration, obtained from inhibition or displacement. `O=C(/C=C/c1ccc(O)c(O)c1)OCCc1ccccc1` [CAPE, Caffeic acid phenethyl ester]: the inhibitory constant (Ki) was 1.51 ± 0.04 µM.
